Where “and” joins values, the source holds several entries; their conditions need not be identical. Equal values may be shown once.
Conditions: Calculated from knudsen effusion weight loss

CCn1cc[n+](C)c1.O=S(=O)([N-]S(=O)(=O)C(F)(F)F)C(F)(F)F
Liquid
Conditions | vapor or sublimation pressure
433.05 K | 2.8e-06 kPa
433.1 K | 3e-06 kPa
438.04 K | 4.2e-06 kPa
438.1 K | 4.3e-06 kPa
438.12 K | 4.5e-06 kPa
443.04 K | 5.9e-06 kPa
443.09 K | 6.3e-06 kPa
443.12 K | 6.3e-06 kPa
448.03 K | 8.4e-06 kPa
448.09 K | 8.8e-06 kPa
448.12 K | 8.9e-06 kPa
453.03 K | 1.18e-05 kPa
453.09 K | 1.23e-05 kPa
453.11 K | 1.25e-05 kPa and 1.21e-05 kPa
453.12 K | 1.25e-05 kPa
458.01 K | 1.71e-05 kPa
458.02 K | 1.66e-05 kPa
458.09 K | 1.72e-05 kPa
458.11 K | 1.76e-05 kPa
458.13 K | 1.72e-05 kPa
463.05 K | 2.29e-05 kPa
463.08 K | 2.39e-05 kPa
463.1 K | 2.45e-05 kPa and 2.42e-05 kPa
463.12 K | 2.38e-05 kPa
463.13 K | 2.39e-05 kPa
468.04 K | 3.16e-05 kPa
468.08 K | 3.27e-05 kPa
468.1 K | 3.41e-05 kPa
468.11 K | 3.33e-05 kPa
468.12 K | 3.29e-05 kPa
468.13 K | 3.32e-05 kPa
473.04 K | 4.32e-05 kPa
473.07 K | 4.5e-05 kPa
473.1 K | 4.61e-05 kPa
473.12 K | 4.51e-05 kPa
473.13 K | 4.53e-05 kPa
473.14 K | 4.69e-05 kPa
478.04 K | 5.84e-05 kPa
478.07 K | 6.13e-05 kPa
478.09 K | 6.25e-05 kPa
478.12 K | 6.08e-05 kPa and 6.16e-05 kPa
478.13 K | 6.12e-05 kPa
483.04 K | 7.83e-05 kPa
483.06 K | 8.23e-05 kPa
483.08 K | 8.4e-05 kPa
483.11 K | 8.32e-05 kPa and 8.24e-05 kPa
483.12 K | 8.26e-05 kPa
488.05 K | 0.0001107 kPa
488.06 K | 0.0001105 kPa
488.08 K | 0.000112 kPa
488.11 K | 0.0001112 kPa and 0.0001115 kPa
493.05 K | 0.0001465 kPa
493.07 K | 0.0001477 kPa
493.1 K | 0.0001477 kPa
493.11 K | 0.0001477 kPa
498.1 K | 0.0001931 kPa
498.11 K | 0.0001943 kPa
503.1 K | 0.0002516 kPa and 0.0002533 kPa

c1ccc(-c2cc(-c3ccccc3)cc(-c3ccccc3)c2)cc1 [1,3,5-triphenylbenzene]
Crystal
Conditions | vapor or sublimation pressure
408.04 K | 0.000144 kPa
408.05 K | 0.0001488 kPa
408.16 K | 0.0001536 kPa
413.04 K | 0.0002384 kPa
413.05 K | 0.000247 kPa
413.16 K | 0.0002528 kPa
418.03 K | 0.0003878 kPa
418.05 K | 0.0004034 kPa
418.15 K | 0.0004157 kPa
423.03 K | 0.0006219 kPa and 0.0006345 kPa
423.04 K | 0.0006477 kPa
423.16 K | 0.0006722 kPa
428.03 K | 0.0009832 kPa
428.04 K | 0.001026 kPa
428.16 K | 0.001081 kPa

— the NIST ThermoML archive (doi:10.1016/j.jct.2018.07.004)
